Source: patent publication US20200121716A1, “Method for Inhibiting Both Glycolysis and Glutamine Metabolism in Cells and Use Thereof” (priority 2017, published 2020)

Test system: anaerobia
Experiment: spontaneous anaerobic fermentation of flour paste sealed with rapeseed oil
Format: cell-based

| SMILES | aqueous solution above the settled flour |
| --- | --- |
| O=CO [formic acid] | clear and transparent |
| O=C([O-])C(=O)[O-].[Na+].[Na+] [sodium oxalate] | clear and transparent |
